The values that follow are results of earlier work, collected in patent publication US10149481B2, “Arthropod control compositions and methods” (Tyratech, Inc., priority 2012, dated 2018).

For data set [1] the following is noted: for mammalian toxicity: Nentwig 2003, Frances 2007b, Moore and Debboun 2007.
For another data set, the system named is D. variabilis. Particulars: 2 h after application, unformulated (Kimps et al. 2011).

For the compound Picaridin, the mammalian toxicity result in data set [1] is listed as “low mammalian toxicity”.

For `CCCCN(CCC(=O)OCC)C(C)=O` [IR3535, 3-(N-Butyl-N-acetyl)-amino propionic acid ethyl ester], the mammalian toxicity result in data set [1] is listed as “low mammalian toxicity”.

As to `CCCCCCCCCC(C)=O` [2-undecanone], the repellency in the data set on D. variabilis is reported as 74%.

For `CC1CCC(C(C)(C)O)C(O)C1` (centres unmarked) [PMD, p-menthane-3,8-diol], in data set [1] (Strickman 2007), the eye irritation result was “exceptionally irritating to the eyes”; the “rat oral and rabbit dermal toxicity” value is reported as “low”.
